Source: ChEMBL document CHEMBL1201862, “PubChem BioAssay data set” (2004)
The source made the active and inactive calls.

Tests used:
[1] = target: fMet-Leu-Phe receptor (Homo sapiens, UniProt P21462); test: formyl peptide receptor binders – dose response (AID 519); type: functional
[2] = target: Mitogen-activated protein kinase 10 (Homo sapiens, UniProt P53779); test: Dose response biochemical screening assay for inhibitors of c-Jun N-Terminal Kinase 3 (JNK3). [Related pubchem assays: 746 ]
[3] = target: Major prion protein (Homo sapiens, UniProt P04156); type: functional, cell-based
[4] = cells
[5] = tested on: HEK293; test: inhibition of NOD1-driven NF-kB reporter – cell-based, luminescence, uHTS, primary screen (AID 1578); type: functional; details: Homo sapiens
[6] = tested on: HEK293; test: cells; type: functional, cell-based; details: Homo sapiens
[7] = tested on: HEK293; test: cells; type: functional, cell-based; details: Homo sapiens; remark: listed apart in the source
[8] = target: Nucleotide-binding oligomerization domain-containing protein 2 (Homo sapiens, UniProt Q9HC29); test: inhibition of NOD2-driven NF-kB reporter – cell-based, luminescence, uHTS, HEK293 (AID 1566); type: functional
[9] = tested on: HEK293; test: NOD2 signaling inhibitors in MDP-stimulated cells, cell-based, uHTS, luminescence (AID 2001); type: functional; details: Homo sapiens
[10] = tested on: HEK293; test: cells; type: functional, cell-based; details: Homo sapiens; remark: listed apart in the source
[11] = target: T1, Replicative DNA helicase DnaB (Mycobacterium tuberculosis, UniProt P9WMR3); test: DnaB intein splicing inhibitors, dose response, biochemical, cell-free fluorescence (AID 449749); type: functional
T1 sequence (P9WMR3 whole entry): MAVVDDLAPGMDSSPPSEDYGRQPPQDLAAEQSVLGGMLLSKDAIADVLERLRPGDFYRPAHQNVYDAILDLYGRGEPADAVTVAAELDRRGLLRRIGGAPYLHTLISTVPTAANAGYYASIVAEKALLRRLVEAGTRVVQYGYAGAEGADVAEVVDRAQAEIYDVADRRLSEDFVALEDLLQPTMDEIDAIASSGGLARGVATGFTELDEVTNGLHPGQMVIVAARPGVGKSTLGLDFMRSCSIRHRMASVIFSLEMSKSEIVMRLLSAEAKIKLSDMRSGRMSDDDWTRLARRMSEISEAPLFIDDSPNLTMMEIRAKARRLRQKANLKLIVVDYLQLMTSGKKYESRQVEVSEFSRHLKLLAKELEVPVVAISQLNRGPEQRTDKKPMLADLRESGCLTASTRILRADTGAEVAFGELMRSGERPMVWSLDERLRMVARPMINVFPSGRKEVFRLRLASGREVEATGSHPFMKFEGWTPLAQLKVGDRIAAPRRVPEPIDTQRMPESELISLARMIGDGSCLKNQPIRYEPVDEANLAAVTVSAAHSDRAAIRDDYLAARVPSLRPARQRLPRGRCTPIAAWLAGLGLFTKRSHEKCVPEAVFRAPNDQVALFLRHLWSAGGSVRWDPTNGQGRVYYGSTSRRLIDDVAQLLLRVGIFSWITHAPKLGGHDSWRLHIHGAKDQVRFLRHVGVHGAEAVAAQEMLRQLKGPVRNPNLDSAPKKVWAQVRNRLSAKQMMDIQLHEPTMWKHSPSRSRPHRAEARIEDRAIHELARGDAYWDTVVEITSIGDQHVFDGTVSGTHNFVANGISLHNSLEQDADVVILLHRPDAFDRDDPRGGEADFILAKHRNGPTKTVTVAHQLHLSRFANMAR

[12] = target: T2, Protein RecA (Mycobacterium tuberculosis, UniProt P9WHJ3); test: Fluorescence Cell-Free Homogeneous Dose Retest to Identify Inhibitors of RecA-Intein Splicing Activity. [Related pubchem assays (depositor defined):AID2097, AID2223, AID489010, AID492950]; type: functional
T2 sequence (P9WHJ3 whole entry): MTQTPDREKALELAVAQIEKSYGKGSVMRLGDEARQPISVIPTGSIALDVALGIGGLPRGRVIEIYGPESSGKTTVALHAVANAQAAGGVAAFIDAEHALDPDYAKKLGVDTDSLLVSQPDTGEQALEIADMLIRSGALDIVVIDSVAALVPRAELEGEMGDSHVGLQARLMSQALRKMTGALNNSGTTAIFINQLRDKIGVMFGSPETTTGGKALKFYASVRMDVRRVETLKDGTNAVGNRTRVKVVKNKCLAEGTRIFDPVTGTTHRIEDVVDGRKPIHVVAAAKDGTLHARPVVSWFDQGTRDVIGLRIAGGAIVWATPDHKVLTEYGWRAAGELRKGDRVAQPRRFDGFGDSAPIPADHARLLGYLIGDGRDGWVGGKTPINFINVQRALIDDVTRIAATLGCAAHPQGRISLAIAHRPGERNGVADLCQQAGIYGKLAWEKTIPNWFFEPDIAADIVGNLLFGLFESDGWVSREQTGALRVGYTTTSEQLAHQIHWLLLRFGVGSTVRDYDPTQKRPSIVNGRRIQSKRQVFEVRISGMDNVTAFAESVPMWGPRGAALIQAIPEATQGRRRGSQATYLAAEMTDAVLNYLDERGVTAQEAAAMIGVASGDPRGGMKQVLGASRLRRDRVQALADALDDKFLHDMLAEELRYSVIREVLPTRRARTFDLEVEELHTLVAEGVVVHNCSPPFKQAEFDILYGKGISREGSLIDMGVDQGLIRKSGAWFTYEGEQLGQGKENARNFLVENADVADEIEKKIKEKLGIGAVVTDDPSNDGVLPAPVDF

[13] = cells; type: functional, cell-based
[14] = target: T3, Trace amine-associated receptor 1 (Homo sapiens, UniProt Q96RJ0); test: Fluorescence-based cell-based high throughput dose response assay to identify agonists of the human trace amine associated receptor 1 (TAAR1).; type: functional
T3 sequence (Q96RJ0 whole entry): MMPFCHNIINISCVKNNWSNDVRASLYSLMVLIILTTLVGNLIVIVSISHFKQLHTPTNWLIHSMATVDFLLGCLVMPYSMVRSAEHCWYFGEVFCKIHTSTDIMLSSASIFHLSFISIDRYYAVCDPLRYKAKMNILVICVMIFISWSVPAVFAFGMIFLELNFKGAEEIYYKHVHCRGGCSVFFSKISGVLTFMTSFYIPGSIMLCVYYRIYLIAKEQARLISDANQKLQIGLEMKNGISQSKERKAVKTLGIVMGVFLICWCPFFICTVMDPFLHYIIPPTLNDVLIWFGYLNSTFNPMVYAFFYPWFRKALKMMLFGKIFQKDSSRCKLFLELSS

[15] = target: T3, Trace amine-associated receptor 1; test: Counterscreen for agonists of the human trace amine associated receptor 1 (hTAAR1): Fluorescence-based cell-based high throughput dose response assay to identify hTAAR1 agonist that also desensitize TAAR1 receptor response.; type: functional
[16] = cells; type: functional, cell-based; remark: listed apart in the source
[17] = Trypanosoma cruzi growth suppression in host cells – NIH3T3 host cells, beta-gal luminescence, confirmation (AID 2044); type: functional, cell-based;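 note: intracellular parasites grown in NIH/3T3 mouse fibroblasts as host cells; luminescent beta-galactosidase reporter signal from transgenic T. cruzi replicating inside host cells; inhibitors lower the luminescence signal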
[18] = NIH3T3 cell viability loss – ATP luminescence, mouse fibroblasts, counter-screen, dose response (AID 2010); type: functional, cell-based;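 note: cells exposed to compound for about 90 hours before reading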
[19] = Luminescence-based cell-based high throughput dose response assay to identify activators of the DAF-12 from the parasite S. stercoralis (ssDAF-12).; type: functional
[20] = cytotoxicity in MITF-independent A375 cells – cell-based, CellTiter-Glo luminescence, dry powder, set 4, counter-screen for MITF inhibitor project, dose response (AID 624364); type: functional; details: A-375;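 note: A375 melanoma cells are MITF independent so this is a counter screen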
[21] = viability loss in MITF-independent A375 cells – cell-based, CellTiter-Glo luminescence, dry powder, set 2, counter-screen for MITF inhibitor project, dose response (AID 624489); type: functional; details: A-375;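 note: actives are compounds lowering A375 viability meaning general cytotoxicity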
[22] = potency of ADAM10 substrate cleavage blockers – biochemical, QFRET, dose response (AID 743254);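 note: ADAM10 enzyme with the DM2 quenched FRET peptide as substrate; EDANS fluorescence gain as the protease cuts the substrate; inhibitor potency against ADAM10 proteolytic activity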
[23] = target: Disintegrin and metalloproteinase domain-containing protein 17 (Homo sapiens, UniProt P78536); test: inhibition of ADAM17 substrate cleavage – biochemical, quenched FRET substrate, counter-screen for ADAM10 exosite inhibitor project, dose response (AID 743253)
Chain of Disintegrin and metalloproteinase domain-containing protein 17 (P78536 whole entry, the tested form may be a part): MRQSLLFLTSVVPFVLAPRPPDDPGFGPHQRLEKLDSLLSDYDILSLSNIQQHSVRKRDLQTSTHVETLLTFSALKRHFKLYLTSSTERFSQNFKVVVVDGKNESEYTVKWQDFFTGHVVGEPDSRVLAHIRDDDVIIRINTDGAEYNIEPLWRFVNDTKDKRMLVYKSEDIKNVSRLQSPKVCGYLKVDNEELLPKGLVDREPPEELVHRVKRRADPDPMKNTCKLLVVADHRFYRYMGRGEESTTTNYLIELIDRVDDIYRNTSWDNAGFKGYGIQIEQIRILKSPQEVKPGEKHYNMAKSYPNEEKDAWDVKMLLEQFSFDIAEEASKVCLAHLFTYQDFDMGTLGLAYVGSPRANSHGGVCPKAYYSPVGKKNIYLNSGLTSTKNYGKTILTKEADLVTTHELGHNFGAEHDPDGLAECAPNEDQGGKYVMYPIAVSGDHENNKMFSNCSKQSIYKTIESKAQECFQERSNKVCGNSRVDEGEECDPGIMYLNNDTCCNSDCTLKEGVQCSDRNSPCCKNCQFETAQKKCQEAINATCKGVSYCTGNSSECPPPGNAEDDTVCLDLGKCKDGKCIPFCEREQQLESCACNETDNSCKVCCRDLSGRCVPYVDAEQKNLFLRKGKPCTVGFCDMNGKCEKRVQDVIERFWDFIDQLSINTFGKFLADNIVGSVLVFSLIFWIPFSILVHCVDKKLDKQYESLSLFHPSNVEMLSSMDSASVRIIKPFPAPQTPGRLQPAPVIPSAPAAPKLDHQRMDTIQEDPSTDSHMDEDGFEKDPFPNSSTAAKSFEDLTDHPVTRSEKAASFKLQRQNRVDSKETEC

Chain of Mitogen-activated protein kinase 10 (P53779 whole entry): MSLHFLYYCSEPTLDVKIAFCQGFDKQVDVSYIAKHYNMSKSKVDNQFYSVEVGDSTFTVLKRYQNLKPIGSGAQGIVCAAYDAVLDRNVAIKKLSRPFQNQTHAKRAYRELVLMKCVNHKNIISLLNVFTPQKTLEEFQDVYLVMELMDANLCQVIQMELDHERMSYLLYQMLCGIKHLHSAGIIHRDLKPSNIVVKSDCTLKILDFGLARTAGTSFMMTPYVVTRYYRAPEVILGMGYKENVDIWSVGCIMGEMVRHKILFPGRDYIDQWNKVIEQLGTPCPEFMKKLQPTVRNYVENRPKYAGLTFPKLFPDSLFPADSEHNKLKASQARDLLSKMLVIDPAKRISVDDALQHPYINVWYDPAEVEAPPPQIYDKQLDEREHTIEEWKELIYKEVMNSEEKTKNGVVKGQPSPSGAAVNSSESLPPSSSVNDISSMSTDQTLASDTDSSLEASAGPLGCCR
Chain of fMet-Leu-Phe receptor (P21462 whole entry): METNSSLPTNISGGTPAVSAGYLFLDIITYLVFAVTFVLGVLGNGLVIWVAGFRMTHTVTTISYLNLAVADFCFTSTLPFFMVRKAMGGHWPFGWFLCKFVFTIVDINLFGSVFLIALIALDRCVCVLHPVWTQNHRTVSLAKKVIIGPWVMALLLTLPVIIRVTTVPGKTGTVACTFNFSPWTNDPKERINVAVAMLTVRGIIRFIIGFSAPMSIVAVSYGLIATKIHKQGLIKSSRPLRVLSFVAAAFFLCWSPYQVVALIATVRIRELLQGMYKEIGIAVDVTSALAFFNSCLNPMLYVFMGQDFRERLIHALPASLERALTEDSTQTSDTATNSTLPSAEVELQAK
Chain of Nucleotide-binding oligomerization domain-containing protein 2 (Q9HC29 whole entry, the tested form may be a part): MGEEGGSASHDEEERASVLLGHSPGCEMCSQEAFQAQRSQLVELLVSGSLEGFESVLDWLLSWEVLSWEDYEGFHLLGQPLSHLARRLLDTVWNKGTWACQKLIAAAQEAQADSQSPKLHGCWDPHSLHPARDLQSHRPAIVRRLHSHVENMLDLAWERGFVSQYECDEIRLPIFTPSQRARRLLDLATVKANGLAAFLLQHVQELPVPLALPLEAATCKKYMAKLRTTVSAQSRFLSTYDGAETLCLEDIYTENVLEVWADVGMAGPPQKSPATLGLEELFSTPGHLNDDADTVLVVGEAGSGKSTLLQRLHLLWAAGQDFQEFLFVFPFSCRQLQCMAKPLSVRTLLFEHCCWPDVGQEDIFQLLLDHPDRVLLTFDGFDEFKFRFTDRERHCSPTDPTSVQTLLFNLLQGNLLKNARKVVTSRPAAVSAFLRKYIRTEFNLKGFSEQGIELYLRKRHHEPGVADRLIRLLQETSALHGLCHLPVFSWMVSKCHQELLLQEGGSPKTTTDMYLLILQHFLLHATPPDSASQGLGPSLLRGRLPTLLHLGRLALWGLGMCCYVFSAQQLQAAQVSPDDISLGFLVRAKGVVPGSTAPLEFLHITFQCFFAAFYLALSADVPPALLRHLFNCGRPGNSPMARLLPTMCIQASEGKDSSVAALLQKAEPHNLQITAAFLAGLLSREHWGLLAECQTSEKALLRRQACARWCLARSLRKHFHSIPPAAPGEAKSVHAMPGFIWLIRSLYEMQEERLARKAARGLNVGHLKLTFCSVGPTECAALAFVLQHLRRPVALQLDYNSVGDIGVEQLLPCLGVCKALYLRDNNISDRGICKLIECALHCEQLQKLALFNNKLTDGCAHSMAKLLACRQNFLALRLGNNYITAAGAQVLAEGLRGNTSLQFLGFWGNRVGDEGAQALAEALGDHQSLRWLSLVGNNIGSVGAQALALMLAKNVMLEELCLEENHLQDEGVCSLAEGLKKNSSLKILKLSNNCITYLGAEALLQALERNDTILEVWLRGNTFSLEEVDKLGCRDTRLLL

## COCCCN1C(=O)C(O)=C(C(=O)c2ccco2)C1c1ccccc1 (stereo not drawn)
[1]
  Ki: 14.5 µM (active)

## CSCCC(Nc1ncnc2ccc(Br)cc12)C(=O)O (stereo not drawn)
[2]
  IC50: 45 µM (not active)
[3]
  IC50: 1.91 µM (active)
[4]
  IC50: > 138 µM (inactive)

## Cc1cc(C(=O)CCl)c(C)n1CCc1ccccc1
[5]
  EC50: 13.1 µM (active)
[6]
  IC50: 5.94 µM (active)
[7]
  IC50: 18 µM (active)
[8]
  EC50: > 20 µM (inactive)
[9]
  IC50: 13.4 µM (inactive)
[10]
  IC50: > 20 µM (inactive)
[11]
  AC50: 16.9 µM (active)
[12]
  EC50: 24.4 µM (active)
[13]
  IC50: > 29.9 µM (inactive)
[14]
  EC50: 1.86 µM (active)
[15]
  IC50: 9.06 µM (active)
[16]
  EC50: > 29.9 µM (inactive)

## COc1ccc2c(C)cc(SCC(=O)c3ccc4c(c3)OCO4)nc2c1
[17]
  EC50: 1.53 µM (active)
[18]
  EC50: > 60 µM (not active)
[19]
  IC50: > 67.5 µM (inactive)

## CCN1CCN(C2=C(NS(=O)(=O)c3cccs3)C(=O)c3ccccc3C2=O)CC1
[20]
  AC50: > 70 µM (inactive)
[21]
  AC50: 56.1 µM (active)

## CC1(Cc2ccc(C(F)(F)F)o2)C(=O)Nc2cc(-c3ccc(F)cc3F)ccc21 (stereo not drawn)
[22]
  IC50: 15.6 µM (inactive)
[23]
  IC50: > 69.5 µM (inactive)
